In ChEMBL document CHEMBL6092220 (J Med Chem, 2024):
Activity calls are given as the source filed them. No cut-off for these calls is given here.

Key:
[1] = target: T1, Protein cereblon/Signal transducer and activator of transcription 3 (Homo sapiens, UniProt P40763+Q96SW2); test: PROTAC activity at his-SUMO-tagged STAT3 (127 to 688 residues)/CRBN in human HeLa cells assessed as induction of STAT3 degradation incubated for 24 hrs by TECAN SPARK microplate reader analysis; format: cell-based
[2] = target: T1, Protein cereblon/Signal transducer and activator of transcription 3; test: PROTAC activity at his-SUMO-tagged STAT3 (127 to 688 residues)/CRBN in human HeLa cells assessed as induction of STAT3 degradation incubated for 24 hrs by TECAN SPARK microplate reader analysis relative to control; format: cell-based
[3] = target: T2, Protein cereblon/Signal transducer and activator of transcription 3 (Mus musculus) (UniProt P42227+Q8C7D2); test: In-vivo PROTAC activity at STAT3/CRBN in female CB17 SCID mouse assessed as reduction STAT3 level liver at 10 mg/kg, iv measured at 24 hrs by Western blot analysis; format: functional, organism-based; parameters: scale not given: the % may be the effect or the level left
[4] = target: T2, Protein cereblon/Signal transducer and activator of transcription 3 (Mus musculus); test: In-vivo PROTAC activity at STAT3/CRBN in female CB17 SCID mouse assessed as reduction STAT3 level spleen at 10 mg/kg, iv measured at 24 hrs by Western blot analysis; format: functional, organism-based; parameters: scale not given: the % may be the effect or the level left
[5] = Binding affinity to STAT5 (unknown origin) by FP assay; parameters: species or system Homo sapiens
[6] = Antiproliferative activity against human MOLM16 cells assessed as cell growth inhibition incubated for 4 days by celltiter-glo assay; format: functional, cell-based, MOLM-16; details: MOLM16, 96 h
SU-DHL-1 = test: Antiproliferative activity against human SU-DHL-1 cells assessed as cell growth inhibition incubated for 4 days by celltiter-glo assay; format: functional, cell-based; details: SU-DHL-1, 96 h
[7] = Antiproliferative activity against human SUPM2 cells assessed as cell growth inhibition incubated for 4 days by celltiter-glo assay; format: functional, cell-based; details: SUP-M2, 96 h
[8] = target: T2, Protein cereblon/Signal transducer and activator of transcription 3 (Mus musculus); test: In-vivo PROTAC activity at STAT3/CRBN in female CB17 SCID mouse assessed as reduction STAT3 level liver at 10 mg/kg, iv measured at 48 hrs by Western blot analysis; format: functional, organism-based; parameters: scale not given: the % may be the effect or the level left
[9] = target: T2, Protein cereblon/Signal transducer and activator of transcription 3 (Mus musculus); test: In-vivo PROTAC activity at STAT3/CRBN in female CB17 SCID mouse assessed as reduction STAT3 level spleen at 10 mg/kg, iv measured at 48 hrs by Western blot analysis; format: functional, organism-based; parameters: scale not given: the % may be the effect or the level left
[10] = target: T2, Protein cereblon/Signal transducer and activator of transcription 3 (Mus musculus); test: In-vivo PROTAC activity at STAT3/CRBN in female CB17 SCID mouse assessed as reduction STAT3 level liver at 10 mg/kg, iv measured at 72 hrs by Western blot analysis; format: functional, organism-based; parameters: scale not given: the % may be the effect or the level left
[11] = target: T2, Protein cereblon/Signal transducer and activator of transcription 3 (Mus musculus); test: In-vivo PROTAC activity at STAT3/CRBN in female CB17 SCID mouse assessed as reduction STAT3 level spleen at 10 mg/kg, iv measured at 72 hrs by Western blot analysis; format: functional, organism-based; parameters: scale not given: the % may be the effect or the level left
[12] = target: T1, Protein cereblon/Signal transducer and activator of transcription 3; test: PROTAC activity at his-SUMO-tagged STAT3 (127 to 688 residues)/CRBN in human HeLa cells assessed as induction of STAT3 degradation upto 5 uM incubated for 24 hrs by TECAN SPARK microplate reader analysis; format: cell-based

Row | Compound | DC50 [1] | Emax [2] | also measured
1 | CN1CC[C@H]2CC[C@@H](C(=O)N[C@@H](CCC(N)=O)C(=O)N[C@@H](Cc3ccccc3)C(=O)N3CCC(CCC#Cc4cccc5c4CN(C4CCC(=O)NC4=O)C5=O)CC3)N2C(=O)[C@@H](NC(=O)c2cc3cc(C(F)(F)P(=O)(O)O)ccc3s2)C1 (some centres not stated) | 130 nM | 94% | Activity [3]: 60%; Activity [4]: 50%; IC50 [5]: > 10 nM
2 | CN1CC[C@H]2CC[C@@H](C(=O)N[C@@H](CCC(N)=O)C(=O)N[C@@H](C(=O)NCCCCCCCCC#Cc3cccc4c3CN(C3CCC(=O)NC3=O)C4=O)c3ccccc3)N2C(=O)[C@@H](NC(=O)c2cc3cc(C(F)(F)P(=O)(O)O)ccc3s2)C1 (some centres not stated) | 800 nM | 60% | 
3 | CCN1CC[C@H]2CC[C@@H](C(=O)N[C@@H](CCC(N)=O)C(=O)N[C@@H](Cc3ccc(F)c(F)c3)C(=O)N3CCC(CCC#Cc4cccc5c4CN(C4CCC(=O)NC4=O)C5=O)CC3)N2C(=O)[C@@H](NC(=O)c2cc3cc(C(F)(F)P(=O)(O)O)ccc3s2)C1 (some centres not stated) | 200 nM | 92% | Activity [3]: 80%; Activity [4]: 80%; IC50 [6]: 31 nM; IC50 (SU-DHL-1): 540 nM; IC50 [7]: 540 nM
4 | CN1CC[C@H]2CC[C@@H](C(=O)N[C@@H](CCC(N)=O)C(=O)N[C@H](CCC(=O)N3CCC(C#Cc4cccc5c4CN(C4CCC(=O)NC4=O)C5)CC3)c3ccccc3)N2C(=O)[C@@H](NC(=O)c2cc3cc(C(F)(F)P(=O)(O)O)ccc3s2)C1 (some centres not stated) | > 5000 nM | 31% | 
5 | CN1CC[C@H]2CC[C@@H](C(=O)N[C@@H](CCC(N)=O)C(=O)N[C@H](C(=O)N3CCC(CCC#Cc4cccc5c4CN(C4CCC(=O)NC4=O)C5=O)CC3)c3ccccc3)N2C(=O)[C@@H](NC(=O)c2cc3cc(C(F)(F)P(=O)(O)O)ccc3s2)C1 (some centres not stated) | 300 nM | 86% | 
6 | NC(=O)CC[C@H](NC(=O)[C@@H]1CC[C@@H]2CCNC[C@H](NC(=O)c3cc4cc(C(F)(F)P(=O)(O)O)ccc4s3)C(=O)N21)C(=O)N[C@@H](Cc1ccc(F)c(F)c1)C(=O)N1CCC(CCC#Cc2cccc3c2CN(C2CCC(=O)NC2=O)C3=O)CC1 (some centres not stated) | 1200 nM | 73% | Activity [3]: Active; Activity [4]: Active
7 | CN1CC[C@H]2CC[C@@H](C(=O)N[C@@H](CCC(N)=O)C(=O)N[C@@H](C(=O)NCCCCCCC#Cc3cccc4c3CN(C3CCC(=O)NC3=O)C4=O)c3ccccc3)N2C(=O)[C@@H](NC(=O)c2cc3cc(C(F)(F)P(=O)(O)O)ccc3s2)C1 (some centres not stated) | > 5000 nM | 36% | 
8 | CN1CC[C@H]2CC[C@@H](C(=O)N[C@@H](CCC(N)=O)C(=O)N[C@H](C(=O)NCCCCC#Cc3cccc4c3CN(C3CCC(=O)NC3=O)C4=O)c3ccccc3)N2C(=O)[C@@H](NC(=O)c2cc3cc(C(F)(F)P(=O)(O)O)ccc3s2)C1 (some centres not stated) | > 5000 nM | 42% | 
9 | CN1CC[C@H]2CC[C@@H](C(=O)N[C@@H](CCC(N)=O)C(=O)N[C@H](C(=O)NCCCCCC#Cc3cccc4c3CN(C3CCC(=O)NC3=O)C4=O)c3ccccc3)N2C(=O)[C@@H](NC(=O)c2cc3cc(C(F)(F)P(=O)(O)O)ccc3s2)C1 (some centres not stated) | > 5000 nM | 34% | 
10 | CC(C)N1CC[C@H]2CC[C@@H](C(=O)N[C@@H](CCC(N)=O)C(=O)N[C@@H](Cc3ccc(F)c(F)c3)C(=O)N3CCC(CCC#Cc4cccc5c4CN(C4CCC(=O)NC4=O)C5=O)CC3)N2C(=O)[C@@H](NC(=O)c2cc3cc(C(F)(F)P(=O)(O)O)ccc3s2)C1 (some centres not stated) | 500 nM | 83% | Activity [3]: > 90%; Activity [4]: > 90%; Activity [8]: > 90%; Activity [9]: > 90%; Activity [10]: > 90%; Activity [11]: > 90%; IC50 [6]: 93 nM; IC50 (SU-DHL-1): 1780 nM; IC50 [7]: 1550 nM
11 | CN1CC[C@H]2CC[C@@H](C(=O)N[C@@H](CCC(N)=O)C(=O)N[C@H](C(=O)NCCCC#Cc3cccc4c3CN(C3CCC(=O)NC3=O)C4=O)c3ccccc3)N2C(=O)[C@@H](NC(=O)c2cc3cc(C(F)(F)P(=O)(O)O)ccc3s2)C1 (some centres not stated) | > 5000 nM | 16% | 
12 | CN1CC[C@H]2CC[C@@H](C(=O)N[C@@H](CCC(N)=O)C(=O)N[C@H](C(=O)NCCCCCCCC#Cc3cccc4c3CN(C3CCC(=O)NC3=O)C4=O)c3ccccc3)N2C(=O)[C@@H](NC(=O)c2cc3cc(C(F)(F)P(=O)(O)O)ccc3s2)C1 (some centres not stated) | 1500 nM | 52% | 
13 | CN1CC[C@H]2CC[C@@H](C(=O)N[C@@H](CCC(N)=O)C(=O)N[C@@H](Cc3ccc(F)c(F)c3)C(=O)N3CCC(CCC#Cc4cccc5c4CN(C4CCC(=O)NC4=O)C5=O)CC3)N2C(=O)[C@@H](NC(=O)c2cc3cc(C(F)(F)P(=O)(O)O)ccc3s2)C1 (some centres not stated) | 220 nM | 90% | Activity [3]: 80%; Activity [4]: 50%
14 | CN1CC[C@H]2CC[C@@H](C(=O)N[C@@H](CCC(N)=O)C(=O)N[C@H](C(=O)N3CCC(CCC#Cc4cccc5c4CN(C4CCC(=O)NC4=O)C5=O)CC3)C3CCCCC3)N2C(=O)[C@@H](NC(=O)c2cc3cc(C(F)(F)P(=O)(O)O)ccc3s2)C1 (some centres not stated) | 260 nM | 91% | 
15 | NC(=O)CC[C@H](NC(=O)[C@@H]1CC[C@@H]2CCN(C(=O)CCCCCC#Cc3cccc4c3CN(C3CCC(=O)NC3=O)C4=O)C[C@H](NC(=O)c3cc4cc(C(=O)P(=O)(O)O)ccc4[nH]3)C(=O)N21)C(=O)NC(c1ccccc1)c1ccccc1 (some centres not stated) | 400 nM | 88% | IC50 [6]: 22 nM; IC50 (SU-DHL-1): 300 nM; IC50 [7]: 470 nM
16 | CN1CC[C@H]2CC[C@@H](C(=O)N[C@@H](CCC(N)=O)C(=O)N[C@@H](C(=O)N3CCC(CCC#Cc4cccc5c4CN(C4CCC(=O)NC4=O)C5=O)CC3)C(C)(C)C)N2C(=O)[C@@H](NC(=O)c2cc3cc(C(F)(F)P(=O)(O)O)ccc3s2)C1 (some centres not stated) | 1010 nM | 80% | 
17 | CN1CC[C@H]2CC[C@@H](C(=O)N[C@@H](CCC(N)=O)C(=O)N[C@](C)(C(=O)N3CCC(CCC#Cc4cccc5c4CN(C4CCC(=O)NC4=O)C5=O)CC3)c3ccccc3)N2C(=O)[C@@H](NC(=O)c2cc3cc(C(F)(F)P(=O)(O)O)ccc3s2)C1 (some centres not stated) | > 5000 nM | 2% | Activity [12]: inactive
18 | CN1CC[C@H]2CC[C@@H](C(=O)N[C@@H](CCC(N)=O)C(=O)N[C@H](CC(=O)N3CCC(C#Cc4cccc5c4CN(C4CCC(=O)NC4=O)C5)CC3)c3ccccc3)N2C(=O)[C@@H](NC(=O)c2cc3cc(C(F)(F)P(=O)(O)O)ccc3s2)C1 (some centres not stated) | > 5000 nM | 0% | 
19 | CN1CC[C@H]2CC[C@@H](C(=O)N[C@@H](CCC(N)=O)C(=O)N[C@H](C(=O)NCCCCCCCCCC#Cc3cccc4c3CN(C3CCC(=O)NC3=O)C4)c3ccccc3)N2C(=O)[C@@H](NC(=O)c2cc3cc(C(F)(F)P(=O)(O)O)ccc3s2)C1 (some centres not stated) | 300 nM | 66% | 
20 | CN1CC[C@H]2CC[C@@H](C(=O)N[C@@H](CCC(N)=O)C(=O)N[C@@H](Cc3ccc(F)cc3)C(=O)N3CCC(CCC#Cc4cccc5c4CN(C4CCC(=O)NC4=O)C5=O)CC3)N2C(=O)[C@@H](NC(=O)c2cc3cc(C(F)(F)P(=O)(O)O)ccc3s2)C1 (some centres not stated) | 90 nM | 94% | Activity [3]: 70%; Activity [4]: 50%
21 | CN1CC[C@H]2CC[C@@H](C(=O)N[C@@H](CCC(N)=O)C(=O)N[C@H](C(=O)N3CCN(CCC#Cc4cccc5c4CN(C4CCC(=O)NC4=O)C5=O)CC3)c3ccccc3)N2C(=O)[C@@H](NC(=O)c2cc3cc(C(F)(F)P(=O)(O)O)ccc3s2)C1 (some centres not stated) | 2500 nM | 62% | 
22 | CN1CC[C@H]2CC[C@@H](C(=O)N[C@@H](CCC(N)=O)C(=O)NC3(C(=O)N4CCC(CCC#Cc5cccc6c5CN(C5CCC(=O)NC5=O)C6=O)CC4)CCCCC3)N2C(=O)[C@@H](NC(=O)c2cc3cc(C(F)(F)P(=O)(O)O)ccc3s2)C1 (some centres not stated) | > 5000 nM | 0% | Activity [12]: inactive
